Test results from US7962290B1, “Identification of pharmacophores from co-crystals of spleen tyrosine kinase (SYK) and SYK ligands” (Rigel Pharmaceuticals, Inc., priority 2006, dated 2011).

Assay: Precipitation of ligand in crystal soaking solution
Type: physicochemical
Procedure: The pooled fractions were dialyzed against 300 mM NaCl, 10 mM Hepes pH 7.5, 5 mM DTT overnight at 4° C. then concentrated to 10.9 mg/mL in a Vivaspin centrifugal concentrator (MWCO=10 kDa). Crystals were obtained at 20° C. in sitting drop plates using 1 μl of protein and 1 μl of crystallant (20% PEG 3000, 100 mM Citrate pH 5.5) equilibrated against 200 μl of crystallant in the reservoir. Plate-shaped crystals were observed after approximately 24 hours. A single crystal was transferred from the crystallization drop to a plate containing crystallant and 11.5 mM Cpd. No. 1. The crystal was soaked for 22.5 hours in this solution. […] The crystal was transferred to a cryoprotectant containing 20% PEG 3000, 100 mM Citrate pH 5:5, 15% glycerol then plunge frozen into liquid nitrogen for X-ray diffraction analysis.
The pooled fractions were dialyzed against 300 mM NaCl, 10 mM Hepes pH 7.5, 5 mM DTT, 10% glycerol overnight at 4° C. then concentrated to 10.0 mg/mL in a Vivaspin centrifugal concentrator (MWCO=10 kDa). Crystals were obtained at 20° C. in sitting drop plates using 1 μl of protein and 1 μl of crystallant (20% PEG 3000, 100 mM Citrate pH 5.5) equilibrated against 200 μl of crystallant in the reservoir. Plate-shaped crystals were observed after approximately 24 hours. […]

| SMILES | precipitation at the end of the soak (crystallant (20% PEG 3000, 100 mM Citrate pH 5.5) with 11.5 mM compound, 22.5 hours) | concentration of the ligand in solution (soak solution 30% PEG 3000, 50 mM Citrate pH 5.5, 5% DMSO, 2.4 mM added, 23.5 hours, some precipitation observed) |
| --- | --- | --- |
| Oc1cccc(Nc2ncc(F)c(Nc3cccc(O)c3)n2)c1 [Cpd. No. 1] | Some precipitation |  |
| COc1cc(Nc2ncc(F)c(Nc3ccc4c(n3)NC(=O)C(C)(C)O4)n2)cc(OC)c1OC [Cpd. No. 3] |  | less than 2.4 mM |
